Measured values published in US9255257B2, “PmST1 mutants for chemoenzymatic synthesis of sialyl lewis X compounds” (THE REGENTS OF THE UNIVERSITY OF CALIFORNIA, priority 2011, dated 2016).

Experiments:
[1] = biological target: Pasteurella multocida α2-3-sialyltransferase 1 (PmST1), wild type (WT), SEQ ID NO: 13 (Pasteurella multocida, UniProt Q15KI8); details: apparent, acceptor, read-out: Km for LacβMU; cited from earlier work
[2] = biological target: T1, Pasteurella multocida PmST1 mutant M144H of SEQ ID NO: 13 (M120H of Δ24PmST1, SEQ ID NO: 5) (Pasteurella multocida, UniProt Q15KI8, M144H); experiment: α2-3-sialyltransferase activity, LacβMU as acceptor; format: biochemical; details: apparent, acceptor, CMP-Neu5Ac 1 mM, Tris-HCl pH 8.5, 37° C.
Description: (§1) Site-directed mutagenesis, expression and purification of PmST1 mutants. Site-directed mutagenesis was performed using the QuikChange multi-site-directed mutagenesis kit from Stratagene according to the manufacturer's protocol. The primers used were 5′-[…]-3′ (SEQ ID NO:35) for M144D; 5′-[…]a[…] -3′ (SEQ ID NO:36) for M144H; 5′-[…]-3′ (SEQ ID NO:37) for A35D; and 5′-[…]-3′ (SEQ ID NO:38) for A35H. The expression and purification of the mutants were performed as previously described for the WT PmST1 .
(§2) Kinetics of the α2-3-sialyltransferase activity of PmST1 mutants by HPLC analysis. With LacβMU as the acceptor substrate, the reactions were performed in duplicate at 37° C. for 10 min (M144D) or 4 min (M144H) in a reaction mixture (10 μL) containing Tris-HCl (100 mM, pH 8.5), an enzyme (5 μg mL^−1), and different concentrations (0.2, 0.5, 1.0, 2.0, and 5.0 mM) of LacβMU with a fixed concentration (1 mM) of CMP-Neu5Ac or different concentrations (0.2, 0.5, 1.0, 2.0, 5.0, and 10.0 mM) of CMP-Neu5Ac with a fixed concentration (1 mM) of LacβMU. With Le^xβMU as the acceptor substrate, the reactions were carried out in duplicate at 37° C. for 9 min (M144D) or 10 min (M144H) in a reaction mixture (10 μL) containing CAPSO (100 mM, pH 9.5), an enzyme (M144D, 39 μg mL^−1 or M144H, 5 μg mL^−), and various concentrations of Le^xβMU (1.0, 5.0, 10.0, 15.0, 25.0, and 35.0 mM) with a fixed concentration (1 mM) of CMP-Neu5Ac or various concentrations (0.2, 0.5, 1.0, 2.0, 5.0, 10.0, 20.0, and 40.0 mM) of CMP-Neu5Ac with a fixed concentration (1 mM) of Le^xβMU. Reactions were stopped by adding 10 μL of pre-chilled ethanol. The mixtures were incubated on ice for 30 min and centrifuged at 13,000 rpm for 5 min. The supernatants were diluted with 25% acetonitrile and kept on ice until aliquots of 8 μL were injected and analyzed by the Shimadzu LC-6AD system equipped with a membrane on-line degasser, a temperature control unit, and a fluorescence detector (Shimadzu RF-10AXL). A reverse-phase Premier C18 column (250×4.6 mm i.d., 5 μm particle size, Shimadzu) protected with a C18 guard column cartridge was used. The mobile phase was 25% acetonitrile. The fluorophore (MU)-labeled compounds were detected by excitation at 325 nm and emission at 372 nm. The apparent kinetic parameters were obtained by fitting the experimental data (the average values of duplicate assay results) into the Michaelis-Menten equation using Grafit 5.0.

[3] = biological target: T2, Pasteurella multocida PmST1 mutant M144D of SEQ ID NO: 13 (M120D of Δ24PmST1, SEQ ID NO: 3) (Pasteurella multocida, UniProt Q15KI8, M144D); experiment: as above; format: biochemical; details: apparent, acceptor, CMP-Neu5Ac 1 mM, Tris-HCl pH 8.5, 37° C.
Description: as §1, §2

[4] = biological target: Pasteurella multocida PmST1 mutant R313Y of SEQ ID NO: 13 (R289Y of Δ24PmST1, SEQ ID NO: 9) (Pasteurella multocida, UniProt Q15KI8, R313Y); experiment: as above; format: biochemical; details: apparent, acceptor, CMP-Neu5Ac 1 mM, Tris-HCl pH 8.5, 37° C.
Description: (§3) To obtain the apparent kinetic parameters of LacβMU as the acceptor for the α2-3-sialyltransferase activity, the kinetic assays were performed in duplicate in reaction mixtures of 10 μL containing Tris-HCl buffer (100 mM, pH 8.5), a fixed concentration of CMP-Neu5Ac (1 mM), different concentrations of LacβMU (0.2, 0.5, 1.0, 2.0, 5.0, and 9.0 mM) and the mutant proteins (2 μg mL^−1 of E271F, 2 μg mL^−1 of R313Y, and 1.6 μg mL^−1 of E271F/R313Y). All reactions were allowed to proceed at 37° C. for 5 min (E271F), 7 min (R313Y), and 10 min (E271F/R313Y). The apparent kinetic parameters were obtained by fitting the experimental data (the average values of duplicate assay results) into the Michaelis-Menten equation using Grafit 5.0.
(§4) To obtain the apparent kinetic parameters of CMP-Neu5Ac as the donor for the α2-3-sialyltransferase activity, the kinetic assays were performed in duplicate in reaction mixtures of 10 μL containing Tris-HCl buffer (100 mM, pH 8.5), a fixed concentration of LacβMU (1 mM), different concentrations of CMP-Neu5Ac (0.1, 0.2, 0.5, 1.0, 2.0, 5.0, 10.0 and 20.0 mM) and the mutant proteins (2 μg mL^−1 of E271F, 2 μg mL^−1 of R313Y, and 1.6 μg mL^−1 of E271F/R313Y). All reactions were allowed to proceed at 37° C. for 2 min (E271F), 7 min (R313Y), and 5 min (E271F/R313Y). The apparent kinetic parameters were obtained by fitting the experimental data (the average values of duplicate assay results) into the Michaelis-Menten equation using Grafit 5.0.
(§5) All the sialidase and α2-3-sialyltransferase assays were performed in an HPLC system. Reactions were stopped by adding 10 μL of ethanol. After necessary dilutions were performed to adjust the concentrations of the fluorescent-labeled compounds, the samples were then kept on ice until aliquots of 8 μL were injected and analyzed by a Shimadzu LC-6AD system equipped with a membrane on-line degasser, a temperature control unit, and a fluorescence detector (Shimadzu RF-10AXL). A reverse-phase Premier C18 column (250×4.6 mm i.d., 5 μm particle size, Shimadzu) protected with a C18 guard column cartridge was used. The mobile phase was 25% acetonitrile. The fluorescent compounds LacβMU and Neu5Acα2-3LacβMU were detected by excitation at 325 nm and emission at 372 nm.

[5] = biological target: Pasteurella multocida PmST1 mutant E271F of SEQ ID NO: 13 (E247F of Δ24PmST1, SEQ ID NO: 7) (Pasteurella multocida, UniProt Q15KI8, E271F); experiment: as above; format: biochemical; details: apparent, acceptor, CMP-Neu5Ac 1 mM, Tris-HCl pH 8.5, 37° C.
Description: as §3, §4, §5

[6] = biological target: Pasteurella multocida PmST1 double mutant E271F/R313Y of SEQ ID NO: 13 (E247F/R289Y of Δ24PmST1, SEQ ID NO: 11) (Pasteurella multocida, UniProt Q15KI8, E271F/R313Y); experiment: as above; format: biochemical; details: apparent, acceptor, CMP-Neu5Ac 1 mM, Tris-HCl pH 8.5, 37° C.
Description: as §3, §4, §5

[7] = system: CC(=O)N[C@H]1[C@H]([C@H](O)[C@H](O)CO)O[C@@](O[C@H]2[C@@H](O)[C@@H](CO)O[C@@H](O[C@H]3[C@H](O)[C@@H](O)[C@H](Oc4ccc5c(C)cc(=O)oc5c4)O[C@@H]3CO)[C@@H]2O)(C(=O)O)C[C@@H]1O; experiment: α2-3-sialidase activity, Neu5Acα2-3LacβMU as substrate; format: biochemical, Pasteurella multocida; details: other: apparent, D141A, MES pH 5.5, 37° C., 60 min
Description: Kinetic Assays. […] The apparent kinetic parameters were obtained by fitting the experimental data (the average values of duplicate assay results) into the Michaelis-Menten equation using Grafit 5.0.
as §5

[8] = system: CC(=O)N[C@H]1[C@H]([C@H](O)[C@H](O)CO)O[C@](OP(=O)(O)OC[C@H]2O[C@@H](n3ccc(N)nc3=O)[C@H](O)[C@@H]2O)(C(=O)O)C[C@@H]1O; experiment: purified protein, by the assay type; details: other: apparent, donor hydrolysis, D141A, Tris-HCl pH 8.5, 37° C., 40 min
Description: The reactions were stopped by adding 10 μL of pre-chilled ethanol. The mixtures were incubated on ice for 30 min and centrifuged at 13,000 rpm for 5 min. The supernatants were diluted with borate buffer (25 mM, pH 9.5) and aliquotes of 5 μL each were injected to a Beckman Coulter P/ACE™ MDQ Capillary Electrophoresis system equipped with a capillary (60 cm×75 μm i.d.) and monitored at 254 nm. The apparent kinetic parameters were obtained by fitting the experimental data (the average values of duplicate assay results) into the Michaelis-Menten equation using Grafit 5.0.

[9] = biological target: T1, Pasteurella multocida PmST1 mutant M144H of SEQ ID NO: 13 (M120H of Δ24PmST1, SEQ ID NO: 5); experiment: α2-3-sialyltransferase activity, Le^xβMU as acceptor; format: biochemical; details: apparent, acceptor, CMP-Neu5Ac 1 mM, CAPSO pH 9.5, 37° C.
Description: as §1, §2

[10] = biological target: T2, Pasteurella multocida PmST1 mutant M144D of SEQ ID NO: 13 (M120D of Δ24PmST1, SEQ ID NO: 3); experiment: as above; format: biochemical; details: apparent, acceptor, CMP-Neu5Ac 1 mM, CAPSO pH 9.5, 37° C.
Description: as §1, §2

Compound: Cc1cc(=O)oc2cc(O[C@@H]3O[C@H](CO)[C@@H](O[C@@H]4O[C@H](CO)[C@H](O)[C@H](O)[C@H]4O)[C@H](O)[C@H]3O)ccc12 [LacβMU, 4-methylumbelliferyl β-lactoside]
- Km [1]: 1400 µM
- kcat (LacβMU) [2]: 21 ± 1 s⁻¹
- kcat (LacβMU) [3]: 22 ± 1 s⁻¹
- kcat (LacβMU) [4]: 19 ± 1 s⁻¹
- kcat (LacβMU) [5]: 28 ± 1 s⁻¹
- kcat (LacβMU) [6]: 17 ± 1 s⁻¹

Compound: Pasteurella multocida PmST1 mutant D141A (Pasteurella multocida; D141A)
- Km [7]: 15000 ± 1000 µM
- Km [8]: 1400 ± 200 µM

Compound: CC(=O)N[C@H]1[C@H](Oc2ccc3c(C)cc(=O)oc3c2)O[C@H](CO)[C@@H](O[C@@H]2O[C@H](CO)[C@H](O)[C@H](O)[C@H]2O)[C@@H]1O[C@@H]1O[C@@H](C)[C@@H](O)[C@@H](O)[C@@H]1O [Le^xβMU, 4-methylumbelliferyl β-Le^x]
- kcat (Le^xβMU) [9]: 8.4 ± 0.3 s⁻¹
- kcat (Le^xβMU) [10]: 4.0 ± 0.2 s⁻¹
